# Measured values: patent US10189839B2, “Tricyclic imidazole compounds as inhibitors of tryptophan hydroxylase” (ACTELION PHARMACEUTICALS LTD, priority 2013, dated 2019)
# Molecular target: T1, full length human TPH1 (Homo sapiens, UniProt P17752)
# T1 construct: To generate the enzyme, full length human TPH1 is cloned into the plasmid pET20b(+); made in house; host or cells: E. coli
# T1 sequence (P17752 1-444): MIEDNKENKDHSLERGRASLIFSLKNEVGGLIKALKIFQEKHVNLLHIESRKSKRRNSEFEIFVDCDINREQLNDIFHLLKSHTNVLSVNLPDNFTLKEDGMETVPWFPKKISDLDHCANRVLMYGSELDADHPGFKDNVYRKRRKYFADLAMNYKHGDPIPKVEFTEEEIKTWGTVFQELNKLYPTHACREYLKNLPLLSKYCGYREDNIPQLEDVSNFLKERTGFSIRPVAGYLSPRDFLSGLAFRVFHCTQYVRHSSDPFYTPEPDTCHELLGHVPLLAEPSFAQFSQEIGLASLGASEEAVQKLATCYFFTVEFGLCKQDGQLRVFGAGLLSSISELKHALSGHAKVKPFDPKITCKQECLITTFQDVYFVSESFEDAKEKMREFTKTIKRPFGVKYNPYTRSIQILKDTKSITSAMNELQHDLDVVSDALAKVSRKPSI
# Test: Biochemical in vitro assay using fluorescence readout (TPH1 enzyme activity)
# Conditions: Table 1, mean where determined several times
# In short: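 IC50 (mean of repeats) derived from 5-hydroxy-L-tryptophan fluorescence at 540 nm (300 nm excitation) relative to vehicle, after perchloric acid stop. Reaction: 60 min, 15° C., pH 7.6 Tris-HCl, 40 μM L-tryptophan, 100 μM 6-methyltetrahydropterine, DTT, catalase, with 40-80 nM purified full-length human TPH1 from E. coli.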
row,Structure (SMILES),IC50
1,"CCc1nc(NS(C)(=O)=O)ccc1OCC(=O)N1CCc2nc3n(c2[C@@H]1c1ccc(Cl)cc1F)CCS3 [Example 4.1.15, (S)-N-(5-(2-(5-(4-chloro-2-fluorophenyl)-2,3,7,8-tetrahydrothiazolo[2′,3′:2,3]imidazo[4,5-c]pyridin-6(5H)-yl)-2-oxoethoxy)-6-ethylpyridin-2-yl)methanesulfonamide]",6 nM
2,"Cc1ccc(C2c3c(nc4n3CCC4)CCN2C(=O)COc2ccc(NS(C)(=O)=O)nc2Cl)c(F)c1 (centres unmarked) [Example 2.2.1, N-(6-chloro-5-(2-(1-(2-fluoro-4-methylphenyl)-3,4,7,8-tetrahydro-1H-pyrrolo[2′,1′:2,3]imidazo[4,5-c]pyridin-2(6H)-yl)-2-oxoethoxy)pyridin-2-yl)methanesulfonamide]",15 nM
3,"CC(=O)N1CCn2c(nc3c2C(c2ncc(C4CC4)cc2F)N(C(=O)COc2ccc(N4CCOCC4)nc2Cl)CC3)C1 (centres unmarked) [Example 5.4.6, 1-(7-acetyl-1-(5-cyclopropyl-3-fluoropyridin-2-yl)-3,4,6,7,8,9-hexahydropyrido[4′,3′:4,5]imidazo[1,2-a]pyrazin-2(1H)-yl)-2-((2-chloro-6-morpholinopyridin-3-yl)oxy)ethanone]",9 nM
4,"CN(C)C(=O)c1ccc(OCC(=O)N2CCc3nc4n(c3C2c2ccc(Cl)cc2F)CCN(C2CC2)C4)c(Cl)n1 (centres unmarked) [Example 5.1.4, 6-chloro-5-(2-(1-(4-chloro-2-fluorophenyl)-7-cyclopropyl-3,4,6,7,8,9-hexahydropyrido[4′,3′:4,5]imidazo[1,2-a]pyrazin-2(1H)-yl)-2-oxoethoxy)-N,N-dimethylpicolinamide]",41 nM
5,"COC(=O)c1csc(C2c3c(nc4n3CCN(C(C)=O)C4)CCN2C(=O)COc2ccc(N3CCOCC3)nc2Cl)c1 (centres unmarked) [Example 5.5.1, methyl 5-(7-acetyl-2-(2-((2-chloro-6-morpholinopyridin-3-yl)oxy)acetyl)-1,2,3,4,6,7,8,9-octahydropyrido[4′,3′:4,5]imidazo[1,2-a]pyrazin-1-yl)thiophene-3-carboxylate]",5 nM
6,"CS(=O)(=O)Nc1ccc(OCC(=O)N2CCc3nc4n(c3C2c2ncc(C3CC3)cc2F)CCCC4)c(Cl)n1 (centres unmarked) [Example 1.3.1, N-(6-chloro-5-(2-(1-(5-cyclopropyl-3-fluoropyridin-2-yl)-3,4,6,7,8,9-hexahydroimidazo[1,2-a:5,4-c′]dipyridin-2(1H)-yl)-2-oxoethoxy)pyridin-2-yl)methanesulfonamide]",63 nM
7,"CNC(=O)c1ccc(OCC(=O)N2CCc3nc4n(c3C2c2ccc(Cl)cc2F)CCN(C(C)=O)C4)c(Cl)n1 (centres unmarked) [Example 5.1.2, 5-(2-(7-acetyl-1-(4-chloro-2-fluorophenyl)-3,4,6,7,8,9-hexahydropyrido[4′,3′:4,5]imida-zo[1,2-a]pyrazin-2(1H)-yl)-2-oxoethoxy)-6-chloro-N-methylpicolinamide]",13 nM
8,"CN(C)c1ncc(C2c3c(nc4n3CCNC4)CCN2C(=O)COc2ccc(N3CCOCC3)nc2Cl)s1 (centres unmarked) [Example 5.6.1, 2-((2-chloro-6-morpholinopyridin-3-yl)oxy)-1-(1-(2-(dimethylamino)thiazol-5-yl)-3,4,6,7,8,9-hexahydropyrido[4′,3′:4,5]imidazo[1,2-a]pyrazin-2(1H)-yl)ethanone]",415 nM
9,"CCc1nc(NS(=O)(=O)N(C)C)ccc1OCC(=O)N1CCc2nc3n(c2C1c1ccc(Cl)cc1F)CCS3 (centres unmarked) [Example 4.1.7, N-(5-(2-(5-(4-chloro-2-fluorophenyl)-2,3,7,8-tetrahydrothiazolo[2′,3′:2,3]imidazo[4,5-c]pyridin-6(5H)-yl)-2-oxoethoxy)-6-ethylpyridin-2-yl)-N′,N′-dimethyl-sulfamide]",76 nM
10,"CCc1nc(C(=O)NC2CC2)ccc1OCC(=O)N1CCc2nc3n(c2C1c1ccc(C)c(F)c1F)CCCC3 (centres unmarked) [Example 1.9.10, N-cyclopropyl-5-(2-(1-(2,3-difluoro-4-methylphenyl)-3,4,6,7,8,9-hexahydroimidazo[1,2-a:5,4-c′]dipyridin-2(1H)-yl)-2-oxoethoxy)-6-ethylpicolinamide]",9 nM
11,"O=C(COc1ccc(N2CCCS2(=O)=O)nc1Cl)N1CCc2nc3n(c2C1c1ccc(Cl)cc1F)CCS3 (centres unmarked) [Example 4.1.2, 1-(5-(4-chloro-2-fluorophenyl)-2,3,7,8-tetrahydrothiazolo[2′,3′:2,3]imidazo[4,5-c]pyridin-6(5H)-yl)-2-((2-chloro-6-(1,1-dioxidoisothiazolidin-2-yl)pyridin-3-yl)oxy)ethanone]",7 nM
12,"CCc1nc(C)ccc1OCC(=O)N1CCc2nc3n(c2C1c1ccc(C2CC2)cc1F)CCN(C(C)=O)C3 (centres unmarked) [Example 5.2.17, 1-(7-acetyl-1-(4-cyclopropyl-2-fluorophenyl)-3,4,6,7,8,9-hexahydropyrido[4′,3′:4,5]imidazo[1,2-a]pyrazin-2(1H)-yl)-2-((2-ethyl-6-methylpyridin-3-yl)oxy)ethanone]",11 nM
13,"CCc1nc(C)ccc1OCC(=O)N1CCc2nc3n(c2C1c1ccc(C2CC2)cc1F)CCNC3 (centres unmarked) [Example 5.2.3, 1-(1-(4-cyclopropyl-2-fluorophenyl)-3,4,6,7,8,9-hexahydropyrido[4′,3′:4,5]imidazo[1,2-a]pyrazin-2(1H)-yl)-2-((2-ethyl-6-methylpyridin-3-yl)oxy)ethanone]",54 nM
14,"O=C(COc1cccnc1C(F)(F)F)N1CCc2nc3n(c2C1c1ncc(C2CC2)cc1F)CCNC3 (centres unmarked) [Example 5.4.2, 1-(1-(5-cyclopropyl-3-fluoropyridin-2-yl)-3,4,6,7,8,9-hexahydropyrido[4′,3′:4,5]imidazo[1,2-a]pyrazin-2(1H)-yl)-2-((2-(trifluoromethyl)pyridin-3-yl)oxy)ethanone]",456 nM
15,"CCc1nc(NS(C)(=O)=O)ccc1OCC(=O)N1CCc2nc3n(c2[C@@H]1c1sc(C)nc1C)CCCC3 [Example 1.10.16, (R)-N-(5-(2-(1-(2,4-dimethylthiazol-5-yl)-3,4,6,7,8,9-hexahydroimidazo[1,2-a:5,4-c′]dipyridin-2(1H)-yl)-2-oxoethoxy)-6-ethylpyridin-2-yl)methanesulfonamide]",6 nM
16,"CS(=O)(=O)Nc1ccc(OCC(=O)N2CCc3nc4n(c3C2c2sccc2F)CCS4)c(Cl)n1 (centres unmarked) [Example 4.6.2, N-(6-chloro-5-(2-(5-(3-fluorothiophen-2-yl)-2,3,7,8-tetrahydrothiazolo[2′,3′:2,3]imidazo[4,5-c]pyridin-6(5H)-yl)-2-oxoethoxy)pyridin-2-yl)methanesulfonamide]",58 nM
17,"CCc1nc(NS(C)(=O)=O)ccc1OCC(=O)N1CCc2nc3n(c2C1c1ncc(C2CC2)cc1F)CCS3 (centres unmarked) [Example 4.2.2, N-(5-(2-(5-(5-cyclopropyl-3-fluoropyridin-2-yl)-2,3,7,8-tetrahydrothiazolo[2′,3′:2,3]imidazo[4,5-c]pyridin-6(5H)-yl)-2-oxoethoxy)-6-ethylpyridin-2-yl)methanesulfonamide]",8 nM
18,"CC(=O)N1CCn2c(nc3c2C(c2ncc(C)cc2F)N(C(=O)COc2ccc(N4CC(F)(F)C4)nc2Cl)CC3)C1 (centres unmarked) [Example 5.8.2, 1-(7-acetyl-1-(3-fluoro-5-methylpyridin-2-yl)-3,4,6,7,8,9-hexahydropyrido[4′,3′:4,5]imidazo[1,2-a]pyrazin-2(1H)-yl)-2-((2-chloro-6-(3,3-difluoroazetidin-1-yl)pyridin-3-yl)oxy)ethanone]",51 nM
19,"CCc1nc(C(=O)NC2CC2)ccc1OCC(=O)N1CCc2nc3n(c2C1c1sc(C)nc1C)CCCC3 (centres unmarked) [Example 1.10.15, N-cyclopropyl-5-(2-(1-(2,4-dimethylthiazol-5-yl)-3,4,6,7,8,9-hexahydroimidazo[1,2-a:5,4-c′]dipyridin-2(1H)-yl)-2-oxoethoxy)-6-ethylpicolinamide]",8 nM
20,"CCc1nc(NS(C)(=O)=O)ncc1OCC(=O)N1CCc2nc3n(c2C1c1ccc(Cl)cc1F)CCS3 (centres unmarked) [Example 4.1.10, N-(5-(2-(5-(4-chloro-2-fluorophenyl)-2,3,7,8-tetrahydrothiazolo[2′,3′:2,3]imidazo[4,5-c]pyridin-6(5H)-yl)-2-oxoethoxy)-4-ethylpyrimidin-2-yl)methanesulfonamide]",67 nM
21,"CCc1nc(C(=O)NC2CC2)ccc1OCC(=O)N1CCc2nc3n(c2C1c1ccc(Cl)cc1F)CCS3 (centres unmarked) [Example 4.1.9, 5-(2-(5-(4-chloro-2-fluorophenyl)-2,3,7,8-tetrahydrothiazolo[2′,3′:2,3]imidazo[4,5-c]pyridin-6(5H)-yl)-2-oxoethoxy)-N-cyclopropyl-6-ethylpicolinamide]",31 nM
22,"Cc1cnc(C2c3c(nc4n3CCCC4)CCN2C(=O)COc2ccc(N(C)S(C)(=O)=O)nc2Cl)c(F)c1 (centres unmarked) [Example 1.6.6, N-(6-chloro-5-(2-(1-(3-fluoro-5-methylpyridin-2-yl)-3,4,6,7,8,9-hexahydroimidazo[1,2-a:5,4-c′]dipyridin-2(1H)-yl)-2-oxoethoxy)pyridin-2-yl)-N-methylmethanesulfonamide]",44 nM
23,"CCc1nc(C2CC2)ccc1OCC(=O)N1CCc2nc3n(c2C1c1ccc(Cl)cc1F)CCS3 (centres unmarked) [Example 4.1.14, 1-(5-(4-chloro-2-fluorophenyl)-2,3,7,8-tetrahydrothiazolo[2′,3′:2,3]imidazo[4,5-c]pyridin-6(5H)-yl)-2-((6-cyclopropyl-2-ethylpyridin-3-yl)oxy)ethanone]",16 nM
